Like-named read-outs stand apart in the source and are kept apart here.
Legend:
Type in all cases: biochemical
PI3Kδ = target: T1, PI3Kδ (Homo sapiens, UniProt O00329); experiment: TR-FRET enzymatic activity assay, PI3Kδ
T1 construct: made in house

PI3Kβ = target: T2, PI3Kβ (Homo sapiens, UniProt P42338); experiment: TR-FRET enzymatic activity assay, PI3Kβ
T2 construct: made in house

PI3Kγ = target: T3, PI3Kγ (Homo sapiens, UniProt P48736); experiment: TR-FRET enzymatic activity assay, PI3Kγ; conditions: read-out: PI3Kγ IC50
T3 construct: made in house
Method: The compounds of formula (I) were characterized for their enzymatic activity against the PI3K isoforms. The activities were measured using a time-resolved fluorescence resonance energy transfer (TR-FRET) assay.

[1] = Table 2, TR-FRET, 2x Km ATP, 30 minutes at 25° C.

T3 sequence (P48736 whole entry): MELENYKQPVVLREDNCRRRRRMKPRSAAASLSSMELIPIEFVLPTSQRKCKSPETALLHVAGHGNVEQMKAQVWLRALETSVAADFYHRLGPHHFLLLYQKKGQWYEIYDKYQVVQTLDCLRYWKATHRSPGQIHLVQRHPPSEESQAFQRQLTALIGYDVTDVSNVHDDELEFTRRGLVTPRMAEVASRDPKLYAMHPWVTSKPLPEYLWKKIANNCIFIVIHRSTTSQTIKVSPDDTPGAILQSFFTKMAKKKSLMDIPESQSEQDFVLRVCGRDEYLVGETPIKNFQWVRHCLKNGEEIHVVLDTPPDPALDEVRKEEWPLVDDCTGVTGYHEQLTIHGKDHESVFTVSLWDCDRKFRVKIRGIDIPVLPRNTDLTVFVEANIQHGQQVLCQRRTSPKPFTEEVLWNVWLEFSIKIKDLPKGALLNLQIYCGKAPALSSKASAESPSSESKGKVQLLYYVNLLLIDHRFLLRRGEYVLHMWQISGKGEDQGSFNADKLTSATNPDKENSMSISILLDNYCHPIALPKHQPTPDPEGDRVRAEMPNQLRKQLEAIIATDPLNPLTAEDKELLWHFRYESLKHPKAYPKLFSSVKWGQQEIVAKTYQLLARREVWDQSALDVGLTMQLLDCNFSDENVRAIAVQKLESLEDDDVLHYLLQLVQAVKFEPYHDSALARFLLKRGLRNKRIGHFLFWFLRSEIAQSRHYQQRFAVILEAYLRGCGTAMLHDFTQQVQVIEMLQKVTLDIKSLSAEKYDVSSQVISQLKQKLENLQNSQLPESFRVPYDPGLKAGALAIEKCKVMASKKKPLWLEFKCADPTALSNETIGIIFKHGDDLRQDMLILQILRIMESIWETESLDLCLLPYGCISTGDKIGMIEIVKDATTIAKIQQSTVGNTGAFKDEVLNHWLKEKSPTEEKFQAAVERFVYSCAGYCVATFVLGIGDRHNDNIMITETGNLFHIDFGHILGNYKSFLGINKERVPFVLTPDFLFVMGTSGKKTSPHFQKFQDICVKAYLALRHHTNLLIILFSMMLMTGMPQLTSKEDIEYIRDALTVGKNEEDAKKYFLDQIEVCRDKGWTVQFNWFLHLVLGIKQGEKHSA
T1 sequence (O00329 whole entry): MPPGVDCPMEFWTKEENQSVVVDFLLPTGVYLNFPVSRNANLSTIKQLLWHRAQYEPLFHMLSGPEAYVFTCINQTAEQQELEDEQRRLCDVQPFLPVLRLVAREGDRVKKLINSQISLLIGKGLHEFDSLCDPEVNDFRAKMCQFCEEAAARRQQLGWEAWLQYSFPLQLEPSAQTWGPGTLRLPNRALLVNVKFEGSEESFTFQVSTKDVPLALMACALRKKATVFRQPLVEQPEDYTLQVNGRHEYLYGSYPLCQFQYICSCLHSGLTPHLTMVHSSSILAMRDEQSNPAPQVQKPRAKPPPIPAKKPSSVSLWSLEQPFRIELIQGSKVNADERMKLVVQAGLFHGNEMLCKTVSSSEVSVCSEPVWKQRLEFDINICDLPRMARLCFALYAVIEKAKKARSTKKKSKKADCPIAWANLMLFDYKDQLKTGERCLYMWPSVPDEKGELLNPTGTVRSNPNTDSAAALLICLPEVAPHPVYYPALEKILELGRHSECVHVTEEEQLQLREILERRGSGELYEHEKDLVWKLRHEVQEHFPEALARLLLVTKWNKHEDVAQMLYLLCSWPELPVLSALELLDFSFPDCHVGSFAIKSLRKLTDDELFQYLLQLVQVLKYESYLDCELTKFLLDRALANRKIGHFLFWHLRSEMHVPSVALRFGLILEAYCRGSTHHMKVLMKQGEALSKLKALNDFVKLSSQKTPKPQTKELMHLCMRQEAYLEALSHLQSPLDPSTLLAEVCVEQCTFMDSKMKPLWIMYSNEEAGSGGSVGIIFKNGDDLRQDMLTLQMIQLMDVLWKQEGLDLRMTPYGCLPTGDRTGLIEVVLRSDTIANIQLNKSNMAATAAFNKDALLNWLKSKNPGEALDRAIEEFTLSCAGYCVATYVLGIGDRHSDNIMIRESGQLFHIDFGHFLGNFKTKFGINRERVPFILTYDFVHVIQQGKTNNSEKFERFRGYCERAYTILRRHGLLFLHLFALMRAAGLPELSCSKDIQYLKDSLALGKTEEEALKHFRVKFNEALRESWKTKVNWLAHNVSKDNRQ
T1 sequence (P27986 whole entry partner): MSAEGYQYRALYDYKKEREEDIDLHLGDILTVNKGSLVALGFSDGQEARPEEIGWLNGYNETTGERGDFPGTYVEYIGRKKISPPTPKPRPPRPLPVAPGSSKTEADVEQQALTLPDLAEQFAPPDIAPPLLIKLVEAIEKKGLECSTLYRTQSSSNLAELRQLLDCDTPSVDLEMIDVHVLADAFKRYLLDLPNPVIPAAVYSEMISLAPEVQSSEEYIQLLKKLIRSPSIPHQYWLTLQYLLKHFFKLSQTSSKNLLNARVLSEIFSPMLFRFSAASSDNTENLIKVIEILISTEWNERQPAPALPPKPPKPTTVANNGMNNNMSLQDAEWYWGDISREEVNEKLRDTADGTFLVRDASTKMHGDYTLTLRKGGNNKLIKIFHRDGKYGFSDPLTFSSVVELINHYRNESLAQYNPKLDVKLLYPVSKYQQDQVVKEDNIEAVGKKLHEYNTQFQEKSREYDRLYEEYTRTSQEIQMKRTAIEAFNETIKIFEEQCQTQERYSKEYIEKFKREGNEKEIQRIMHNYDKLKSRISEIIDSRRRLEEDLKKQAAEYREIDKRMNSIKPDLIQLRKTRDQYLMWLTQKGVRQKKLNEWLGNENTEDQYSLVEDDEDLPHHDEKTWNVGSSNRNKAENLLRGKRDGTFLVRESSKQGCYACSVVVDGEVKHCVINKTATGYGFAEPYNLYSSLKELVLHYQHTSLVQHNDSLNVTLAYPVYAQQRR
T2 sequence (P42338 whole entry): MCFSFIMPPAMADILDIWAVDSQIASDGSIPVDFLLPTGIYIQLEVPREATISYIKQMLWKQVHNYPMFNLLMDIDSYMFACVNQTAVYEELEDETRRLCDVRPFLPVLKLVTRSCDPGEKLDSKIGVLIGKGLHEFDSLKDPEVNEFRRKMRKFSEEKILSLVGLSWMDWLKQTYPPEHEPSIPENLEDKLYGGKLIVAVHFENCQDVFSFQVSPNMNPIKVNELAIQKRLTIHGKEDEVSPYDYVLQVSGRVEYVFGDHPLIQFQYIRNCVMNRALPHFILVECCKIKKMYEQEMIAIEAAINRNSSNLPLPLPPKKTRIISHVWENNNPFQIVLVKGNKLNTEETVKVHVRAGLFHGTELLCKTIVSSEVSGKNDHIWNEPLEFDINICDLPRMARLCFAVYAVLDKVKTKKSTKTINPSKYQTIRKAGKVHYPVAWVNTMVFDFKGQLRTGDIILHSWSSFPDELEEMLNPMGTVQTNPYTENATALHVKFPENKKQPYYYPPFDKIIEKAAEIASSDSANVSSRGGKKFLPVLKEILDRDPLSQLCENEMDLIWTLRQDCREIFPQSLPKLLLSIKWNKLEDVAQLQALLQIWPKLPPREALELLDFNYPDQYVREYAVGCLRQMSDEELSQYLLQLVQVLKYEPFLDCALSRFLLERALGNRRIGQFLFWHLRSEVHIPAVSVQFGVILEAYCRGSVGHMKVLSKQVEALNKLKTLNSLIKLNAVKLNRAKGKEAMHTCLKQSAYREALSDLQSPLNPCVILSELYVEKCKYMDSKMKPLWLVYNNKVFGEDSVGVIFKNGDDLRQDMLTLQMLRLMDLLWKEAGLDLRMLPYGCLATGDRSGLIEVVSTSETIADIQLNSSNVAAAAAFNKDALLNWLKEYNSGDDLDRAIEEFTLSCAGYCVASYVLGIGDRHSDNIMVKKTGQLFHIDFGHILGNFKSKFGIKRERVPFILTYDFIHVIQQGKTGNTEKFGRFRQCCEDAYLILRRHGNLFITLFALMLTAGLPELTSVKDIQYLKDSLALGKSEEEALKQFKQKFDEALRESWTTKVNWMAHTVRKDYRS
T2 sequence (P27986 whole entry partner): as the sequence (P27986 whole entry partner) above

`Cc1n[nH]c2nc(Cl)nc(N[C@@H](C)c3nc4cccc(Cl)c4c(=O)n3-c3cc[nH]n3)c12` [Compound 89, (S)-5-chloro-2-(1-((6-chloro-3-methyl-1H-pyrazolo[3,4-d]pyrimidin-4-yl)amino)ethyl)-3-(1H-pyrazol-3-yl)quinazolin-4(3H)-one] showed an IC50 (PI3Kδ; [1]) of 1.9 µM, an IC50 (PI3Kβ; [1]) of 3.1 µM and an IC50 (PI3Kγ) greater than 10 µM.

Work on `CC[C@H](Nc1nc(N)nc(N)c1C#N)c1nc2cccc(C3CC3)c2c(=O)n1-c1cc[nH]n1` [Compound 245, (S)-2,4-diamino-6-((1-(5-cyclopropyl-4-oxo-3-(1H-pyrazol-3-yl)-3,4-dihydroquinazolin-2-yl)propyl)amino)pyrimidine-5-carbonitrile] yielded an IC50 (PI3Kδ; Table 2a, same assay) of 0.006 µM, an IC50 (PI3Kβ; Table 2a, same assay) of 0.004 µM and an IC50 (PI3Kγ; Table 2a, same assay) of 0.37 µM.

`C[C@H](Nc1nc(N)nc(N)c1C(F)(F)F)c1nc2cccc(Cl)c2c(=O)n1-c1cc[nH]n1` [Compound 201, (S)-5-chloro-2-(1-((2,6-diamino-5-(trifluoromethyl)pyrimidin-4-yl)amino)ethyl)-3-(1H-pyrazol-3-yl)quinazolin-4(3H)-one] was tested, and the IC50 (PI3Kδ; Table 2a, same assay) was 0.003 µM, the IC50 (PI3Kβ; Table 2a, same assay) was 0.003 µM and the IC50 (PI3Kγ; Table 2a, same assay) was 1 µM.

In the case of `C[C@H](Nc1nc(N)nc(N)c1C#N)c1nc2c(Cl)cc(F)cc2c(=O)n1-c1c[nH]cn1` [Compound 285, (S)-2,4-diamino-6-((1-(8-chloro-6-fluoro-3-(1H-imidazol-4-yl)-4-oxo-3,4-dihydroquinazolin-2-yl)ethyl)amino)pyrimidine-5-carbonitrile], the IC50 (PI3Kδ; Table 2a, same assay) is reported as 0.001 µM, the IC50 (PI3Kβ; Table 2a, same assay) is reported as 0.004 µM and the IC50 (PI3Kγ; Table 2a, same assay) is reported as 0.33 µM.

`O=c1c2c(Cl)cccc2nc([C@H](COCc2ccccc2)Nc2ncnc3scnc23)n1-c1cc[nH]n1` [Compound 48, (R)-2-(2-(benzyloxy)-1-(thiazolo[5,4-d]pyrimidin-7-ylamino)ethyl)-5-chloro-3-(1H-pyrazol-3-yl)quinazolin-4(3H)-one] was tested, and the IC50 (PI3Kδ; [1]) was 0.008 µM, the IC50 (PI3Kβ; [1]) was 0.009 µM and the IC50 (PI3Kγ) was greater than 10 µM.

Molecule `CCC[C@H](Nc1nc(N)nc(N)c1C#N)c1nc2cccc(Cl)c2c(=O)n1-c1cc[nH]n1` [Compound 253, (S)-2,4-diamino-6-((1-(5-chloro-4-oxo-3-(1H-pyrazol-3-yl)-3,4-dihydroquinazolin-2-yl)butyl)amino)pyrimidine-5-carbonitrile] has an IC50 (PI3Kδ; Table 2a, same assay) of 0.001 µM, an IC50 (PI3Kβ; Table 2a, same assay) of 0.004 µM and an IC50 (PI3Kγ; Table 2a, same assay) of 0.32 µM.

Molecule `CC[C@H](Nc1nc(N)nc2[nH]nc(Br)c12)c1nc2c(C#N)cccc2c(=O)n1-c1cc[nH]n1` [Compound 80, (S)-2-(1-((6-amino-3-bromo-1H-pyrazolo[3,4-d]pyrimidin-4-yl)amino)propyl)-4-oxo-3-(1H-pyrazol-3-yl)-3,4-dihydroquinazoline-8-carbonitrile] has an IC50 (PI3Kδ; [1]) of 0.035 µM, an IC50 (PI3Kβ; [1]) of 0.022 µM and an IC50 (PI3Kγ) greater than 10 µM.

`CC[C@H](Nc1ncnc2cccnc12)c1nc2c(Cl)ccc(Cl)c2c(=O)n1-c1cn[nH]c1` [Compound 41, (S)-5,8-dichloro-3-(1H-pyrazol-4-yl)-2-(1-(pyrido[3,2-d]pyrimidin-4-ylamino)propyl)quinazolin-4(3H)-one] was tested, and the IC50 (PI3Kδ; [1]) was 0.013 µM, the IC50 (PI3Kβ; [1]) was 0.088 µM and the IC50 (PI3Kγ; [1]) was 1.6 µM.

For `C[C@H](Nc1nc(N)nc(C(F)F)c1C#N)c1nc2c(C(F)F)cc(F)cc2c(=O)n1-c1cc[nH]n1` [Compound 142, (S)-2-amino-4-(difluoromethyl)-6-((1-(8-(difluoromethyl)-6-fluoro-4-oxo-3-(1H-pyrazol-3-yl)-3,4-dihydroquinazolin-2-yl)ethyl)amino)pyrimidine-5-carbonitrile], the IC50 (PI3Kδ; Table 2a, same assay) was 0.047 µM, the IC50 (PI3Kβ; Table 2a, same assay) was 0.035 µM and the IC50 (PI3Kγ; Table 2a, same assay) was greater than 10 µM.

`CC[C@H](Nc1nc(N)nc(N)c1Cl)c1nc2cccc(Cl)c2c(=O)n1-c1cc[nH]n1` [Compound 65, (S)-5-chloro-2-(1-((2,6-diamino-5-chloropyrimidin-4-yl)amino)propyl)-3-(1H-pyrazol-3-yl)quinazolin-4(3H)-one] was tested, and the IC50 (PI3Kδ; [1]) was 0.009 µM, the IC50 (PI3Kβ; [1]) was 0.018 µM and the IC50 (PI3Kγ; [1]) was 4.2 µM.

Work on `Nc1nc(N)c(Cl)c(N[C@@H](c2ccccc2)c2nc3cccc(Cl)c3c(=O)n2-c2cn[nH]c2)n1` [Compound 107, (S)-5-chloro-2-(((2,6-diamino-5-chloropyrimidin-4-yl)amino)(phenyl)methyl)-3-(1H-pyrazol-4-yl)quinazolin-4(3h)-one] yielded an IC50 (PI3Kδ; [1]) of 0.011 µM, an IC50 (PI3Kβ; [1]) of 0.049 µM and an IC50 (PI3Kγ; [1]) of 2.4 µM.

Work on `Cc1c[nH]nc1-n1c([C@H](C)Nc2ncnc(N)c2C#N)nc2cccc(Cl)c2c1=O` [Compound 3, (S)-4-amino-6-((1-(5-chloro-3-(4-methyl-1H-pyrazol-3-yl)-4-oxo-3,4-dihydroquinazolin-2-yl)ethyl)amino)pyrimidine-5-carbonitrile] yielded an IC50 (PI3Kδ; [1]) of 0.002 µM, an IC50 (PI3Kβ; [1]) of 0.055 µM and an IC50 (PI3Kγ; [1]) of 3 µM.

With `CCC[C@H](Nc1nc(N)nc(N)c1C#N)c1nc2cccc(Cl)c2c(=O)n1-c1c[nH]cn1` [Compound 283, (S)-2,4-diamino-6-((1-(5-chloro-3-(1H-imidazol-4-yl)-4-oxo-3,4-dihydroquinazolin-2-yl)butyl)amino)pyrimidine-5-carbonitrile] the IC50 (PI3Kδ; Table 2a, same assay) was 0.002 µM, the IC50 (PI3Kβ; Table 2a, same assay) was 0.003 µM and the IC50 (PI3Kγ; Table 2a, same assay) was 0.74 µM.

Work on `CC[C@H](Nc1nc(N)nc(N)c1C#N)c1nc2cccc(Cl)c2c(=O)n1-c1cn[nH]c1` [Compound 21, (S)-2,4-diamino-6-((1-(5-chloro-4-oxo-3-(1H-pyrazol-4-yl)-3,4-dihydroquinazolin-2-yl)propyl)amino)pyrimidine-5-carbonitrile] yielded an IC50 (PI3Kδ; [1]) of 0.002 µM, an IC50 (PI3Kβ; [1]) of 0.009 µM and an IC50 (PI3Kγ; [1]) of 0.23 µM.

`N#Cc1c(N)nc(N)nc1N1CCC[C@H]1c1nc2cccc(Cl)c2c(=O)n1-c1cn[nH]c1` [Compound 23, (S)-2,4-diamino-6-(2-(5-chloro-4-oxo-3-(1H-pyrazol-4-yl)-3,4-dihydroquinazolin-2-yl)pyrrolidin-1-yl)pyrimidine-5-carbonitrile] gave an IC50 (PI3Kδ; [1]) of 0.009 µM, an IC50 (PI3Kβ; [1]) of 0.15 µM and an IC50 (PI3Kγ; [1]) of 0.74 µM.

Molecule `Nc1nc(N)c(Cl)c(N[C@H](c2nc3c(Cl)cccc3c(=O)n2-c2cc[nH]n2)C2CC2)n1` [Compound 13, (S)-8-chloro-2-(cyclopropyl((2,6-diamino-5-chloropyrimidin-4-yl)amino)methyl)-3-(1H-pyrazol-3-yl)quinazolin-4(3H)-one] has an IC50 (PI3Kδ; [1]) of 0.039 µM, an IC50 (PI3Kβ; [1]) of 0.14 µM and an IC50 (PI3Kγ) greater than 10 µM.

With `CC[C@H](Nc1nc(N)nc(N)c1C#N)c1nc2cccc(C#N)c2c(=O)n1-c1cn[nH]c1` [Compound 102, (S)-2-(1-((2,6-diamino-5-cyanopyrimidin-4-yl)amino)propyl)-4-oxo-3-(1H-pyrazol-4-yl)-3,4-dihydroquinazoline-5-carbonitrile] the IC50 (PI3Kδ; [1]) was 0.029 µM, the IC50 (PI3Kβ; [1]) was 0.082 µM and the IC50 (PI3Kγ; [1]) was 2.5 µM.

With `Cc1nc(N)nc(N[C@@H](c2ccccc2)c2nc3cccc(Cl)c3c(=O)n2-c2cn[nH]c2)c1C#N` [Compound 108, (S)-2-amino-4-(((5-chloro-4-oxo-3-(1H-pyrazol-4-yl)-3,4-dihydroquinazolin-2-yl)(phenyl)methyl)amino)-6-methylpyrimidine-5-carbonitrile] the IC50 (PI3Kδ; [1]) was 0.001 µM, the IC50 (PI3Kβ; [1]) was 0.005 µM and the IC50 (PI3Kγ; [1]) was 0.15 µM.

For `C[C@H](Nc1nc(N)nc(C(F)F)c1C#N)c1nc2c(Cl)cc(F)cc2c(=O)n1-c1cn[nH]c1` [Compound 183, (S)-2-amino-4-((1-(8-chloro-6-fluoro-4-oxo-3-(1H-pyrazol-4-yl)-3,4-dihydroquinazolin-2-yl)ethyl)amino)-6-(difluoromethyl)pyrimidine-5-carbonitrile], the IC50 (PI3Kδ; Table 2a, same assay) was 0.009 µM, the IC50 (PI3Kβ; Table 2a, same assay) was 0.025 µM and the IC50 (PI3Kγ; Table 2a, same assay) was 0.84 µM.

`CCC[C@H](Nc1nc(N)nc(N)c1C#N)c1nc2c(Cl)ccc(Cl)c2c(=O)n1-c1cn[nH]c1` [Compound 251, (S)-2,4-diamino-6-((1-(5,8-dichloro-4-oxo-3-(1H-pyrazol-4-yl)-3,4-dihydroquinazolin-2-yl)butyl)amino)pyrimidine-5-carbonitrile] gave an IC50 (PI3Kδ; Table 2a, same assay) of 0.002 µM, an IC50 (PI3Kβ; Table 2a, same assay) of 0.01 µM and an IC50 (PI3Kγ; Table 2a, same assay) of 0.77 µM.

For `C[C@H](Nc1nc(N)nc(N)c1C#N)c1nc2cccc(C(F)(F)F)c2c(=O)n1-c1cc[nH]n1` [Compound 205, (S)-2,4-diamino-6-((1-(4-oxo-3-(1H-pyrazol-3-yl)-5-(trifluoromethyl)-3,4-dihydroquinazolin-2-yl)ethyl)amino)pyrimidine-5-carbonitrile], the IC50 (PI3Kδ; Table 2a, same assay) was 0.0007 µM, the IC50 (PI3Kβ; Table 2a, same assay) was 0.002 µM and the IC50 (PI3Kγ; Table 2a, same assay) was 0.32 µM.

Molecule `CC[C@H](Nc1nc(F)nc2[nH]cnc12)c1nc2c(Cl)ccc(Cl)c2c(=O)n1-c1cn[nH]c1` [Compound 55, (S)-5,8-dichloro-2-(1-((2-fluoro-9H-purin-6-yl)amino)propyl)-3-(1H-pyrazol-4-yl)quinazolin-4(3H)-one] has an IC50 (PI3Kδ; [1]) of 0.065 µM, an IC50 (PI3Kβ; [1]) of 0.57 µM and an IC50 (PI3Kγ) greater than 10 µM.

Molecule `CC[C@H](Nc1nc(N)nc(N)c1C#N)c1nc2c(C#N)cccc2c(=O)n1-c1cc[nH]n1` [Compound 75, (S)-2-(1-((2,6-diamino-5-cyanopyrimidin-4-yl)amino)propyl)-4-oxo-3-(1H-pyrazol-3-yl)-3,4-dihydroquinazoline-8-carbonitrile] has an IC50 (PI3Kδ; [1]) of 0.003 µM, an IC50 (PI3Kβ; [1]) of 0.001 µM and an IC50 (PI3Kγ; [1]) of 5.1 µM.

`C[C@H](Nc1ncnc2sccc12)c1nc2cccc(Cl)c2c(=O)n1-c1cc[nH]n1` [Compound 60, (S)-5-chloro-3-(1H-pyrazol-3-yl)-2-(1-(thieno[2,3-d]pyrimidin-4-ylamino)ethyl)quinazolin-4(3H)-one] showed an IC50 (PI3Kδ; [1]) of 0.002 µM, an IC50 (PI3Kβ; [1]) of 0.043 µM and an IC50 (PI3Kγ) greater than 10 µM.

`C[C@H](Nc1nc(N)nc(N)c1Cl)c1nc2c(F)ccc(F)c2c(=O)n1-c1cc[nH]n1` [Compound 152, (S)-2-(1-((2,6-diamino-5-chloropyrimidin-4-yl)amino)ethyl)-5,8-difluoro-3-(1H-pyrazol-3-yl)quinazolin-4(3H)-one] showed an IC50 (PI3Kδ; Table 2a, same assay) of 0.013 µM, an IC50 (PI3Kβ; Table 2a, same assay) of 0.02 µM and an IC50 (PI3Kγ; Table 2a, same assay) greater than 10 µM.

From patent US10308639B2, “Phosphatidylinositol 3-kinase inhibitors” (Gilead Sciences, Inc., priority 2014, dated 2019)
